{"source": "patent US20010041688A1", "about": "“Methods and compositions for the regulation of vasoconstriction” (priority 2000, published 2001)", "key": {"basilar artery [1]": {"test_system": "basilar artery", "assay": "Contractile tension in isolated basilar artery (isometric myograph)", "conditions": "isolated rat basilar artery; for Contractile response Emax: % of contraction evoked by 100 mM KCl; for EC50: read-out: Contractile response EC50", "experimental": "(§1) Preparations were equilibrated unstretched for 30 min."}, "middle cerebral artery": {"test_system": "middle cerebral artery", "assay": "Contractile tension in isolated middle cerebral artery (isometric myograph)", "conditions": "isolated rat middle cerebral artery; for Contractile response Emax: % of contraction evoked by 100 mM KCl; for EC50: read-out: Contractile response EC50", "experimental": "as §1"}, "coronary artery": {"test_system": "coronary artery", "assay": "Contractile tension in isolated coronary artery (isometric myograph)", "conditions": "isolated rat coronary artery; for Contractile response Emax: % of contraction evoked by 100 mM KCl", "experimental": "as §1"}, "carotid artery": {"test_system": "carotid artery", "assay": "Contractile tension in isolated carotid artery (isometric myograph)", "conditions": "isolated rat carotid artery; for Contractile response Emax: % of contraction evoked by 100 mM KCl", "experimental": "as §1"}, "femoral artery": {"test_system": "femoral artery", "assay": "Contractile tension in isolated femoral artery (isometric myograph)", "conditions": "isolated rat femoral artery; for Contractile response Emax: % of contraction evoked by 100 mM KCl", "experimental": "as §1"}, "[2]": {"test_system": "S1P-induced vasoconstriction of basilar artery", "assay": "Modulation of S1P-induced vasoconstriction in isolated basilar artery", "design": "species or system rat"}, "basilar artery [3]": {"test_system": "basilar artery", "design": "species or system rat"}, "cerebral blood flow": {"test_system": "cerebral blood flow", "assay": "Relative cerebral blood flow by laser Doppler flowmetry in anesthetized rats", "assay_type": "in vivo, rat", "conditions": "for Relative cerebral blood flow (rCBF) in cerebral cortex: 0.3 mg/kg infused into left internal carotid artery, anesthetized rats", "experimental": "Pentobarbital-anaesthetized mechanically-ventilated male rats (250-300 g, Charles River) were maintained at 37.0±0.5° C. A femoral vein and artery were cannulated to monitor mean arterial blood pressure, heart rate and arterial blood gases. The left common carotid artery was ligated. The animals were placed in a stereotaxic frame and relative cerebral blood flow (rCBF) was measured by a laser Doppler flow probe (Model PF2B, Perimed) affixed to the thinned skull above the vascular territory of the left middle cerebral artery (2 mm posterior to Bregma, 3 mm lateral to midline). Changes in rCBF were expressed as a percentage of baseline and recorded for 20 minutes beginning at the onset of drug or vehicle infusion. S1P, DHS1P or vehicle were infused (100 μl/2 minutes) into the left internal carotid artery. Some rats were pretreated with suramin via infusion (200 μl/2 min) into the left femoral vein."}, "mouse basilar arteries": {"test_system": "mouse basilar arteries", "assay": "Constriction of mouse basilar artery", "conditions": "data not shown"}, "rabbit basilar arteries": {"test_system": "rabbit basilar arteries", "assay": "Constriction of rabbit basilar artery", "conditions": "data not shown"}, "[4]": {"conditions": "read-out: Contractile response EC50"}}}
{"molecule": "NCCc1c[nH]c2ccc(O)cc12", "note": "[5-HT, 5-hydroxytryptamine]", "values": [{"measurement": "Contractile response Emax", "setting": "basilar artery [1]", "value": 99.5, "unit": "% KCl"}, {"measurement": "EC50", "setting": "basilar artery [1]", "value": 63, "unit": "nM"}, {"measurement": "Contractile response Emax", "setting": "middle cerebral artery", "value": 73.2, "unit": "% KCl"}, {"measurement": "EC50", "setting": "middle cerebral artery", "value": 44, "unit": "nM"}, {"measurement": "Contractile response Emax", "setting": "coronary artery", "value": 119.3, "unit": "% KCl"}, {"measurement": "EC50", "setting": "coronary artery; [4]", "value": 242, "unit": "nM"}, {"measurement": "Contractile response Emax", "setting": "carotid artery", "value": 101.1, "unit": "% KCl"}, {"measurement": "EC50", "setting": "carotid artery; [4]", "value": 3180, "unit": "nM"}, {"measurement": "Contractile response Emax", "setting": "femoral artery", "value": 133.2, "unit": "% KCl"}, {"measurement": "EC50", "setting": "femoral artery; [4]", "value": 122, "unit": "nM"}]}
{"molecule": "CCCCCCCCCCCCC/C=C/[C@@H](O)[C@@H](N)CO", "note": "[sphingosine]", "values": [{"measurement": "Contractile response to S1P after preincubation with sphingosine together with DMS", "setting": "[2]; sphingosine 10 μM plus DMS 20 μM, added 30 min prior to S1P", "value": "fully blocked"}]}
{"molecule": "Pertussis toxin", "values": [{"measurement": "Effect of toxin incubation on S1P-induced vasoconstriction (in words)", "setting": "[2]; basilar artery segments treated in vitro with toxin", "value": "did not modify"}, {"measurement": "Response to 5-HT1 receptor agonist 5-carboxamidotryptamine after incubation with toxin", "setting": "basilar artery [3]; without toxin 92±10, n=4, p<0.05", "value": "30±2 % of KCl-evoked contraction"}]}
{"molecule": "CCCCCCCCCCCCC/C=C/[C@@H](O)[C@@H](N)COP(=O)(O)O", "note": "[S1P, sphingosine-1-phosphate]", "values": [{"measurement": "Contraction (in words)", "setting": "basilar artery [1]", "value": "robust contraction"}, {"measurement": "Contractile response Emax", "setting": "basilar artery [1]", "value": 96.7, "unit": "% KCl"}, {"measurement": "EC50", "setting": "basilar artery [1]", "value": 280, "unit": "nM"}, {"measurement": "Contraction (in words)", "setting": "middle cerebral artery", "value": "robust contraction"}, {"measurement": "Contractile response Emax", "setting": "middle cerebral artery", "value": 77.6, "unit": "% KCl"}, {"measurement": "EC50", "setting": "middle cerebral artery", "value": 350, "unit": "nM"}, {"measurement": "Contraction (in words)", "setting": "coronary artery", "value": "weakly constricted"}, {"measurement": "Contractile response Emax", "setting": "coronary artery", "value": 16.9, "unit": "% KCl"}, {"measurement": "Contraction (in words)", "setting": "carotid artery", "value": "unresponsive"}, {"measurement": "Contractile response Emax", "setting": "carotid artery", "value": 5.2, "unit": "% KCl"}, {"measurement": "Contraction (in words)", "setting": "femoral artery", "value": "unresponsive"}, {"measurement": "Contractile response Emax", "setting": "femoral artery", "value": 3.6, "unit": "% KCl"}, {"measurement": "Relative cerebral blood flow (rCBF) in cerebral cortex", "setting": "cerebral blood flow", "value": "decreased"}, {"measurement": "Constriction (in words)", "setting": "mouse basilar arteries", "value": "able to constrict"}, {"measurement": "Constriction (in words)", "setting": "rabbit basilar arteries", "value": "able to constrict"}]}
{"molecule": "CCCCCCCCCCCCCCC[C@@H](O)[C@@H](N)COP(=O)(O)O", "note": "[DHS1P, dihydrosphingosine-1-phosphate]", "values": [{"measurement": "Contraction (in words)", "setting": "basilar artery [1]", "value": "less effectively than S1P"}, {"measurement": "Contractile response Emax", "setting": "basilar artery [1]", "value": 58.8, "unit": "% KCl"}, {"measurement": "EC50", "setting": "basilar artery [1]", "value": 240, "unit": "nM"}, {"measurement": "Contractile response Emax", "setting": "coronary artery", "value": 15.9, "unit": "% KCl"}, {"measurement": "Contractile response Emax", "setting": "carotid artery", "value": 5.9, "unit": "% KCl"}, {"measurement": "Contractile response Emax", "setting": "femoral artery", "value": 6.3, "unit": "% KCl"}, {"measurement": "Relative cerebral blood flow (rCBF) in cerebral cortex", "setting": "cerebral blood flow", "value": "reduced rCBF, although less potently"}]}
{"molecule": "Cc1ccc(C(=O)Nc2ccc(S(=O)(=O)O)c3cc(S(=O)(=O)O)cc(S(=O)(=O)O)c23)cc1NC(=O)c1cccc(NC(=O)Nc2cccc(C(=O)Nc3cc(C(=O)Nc4ccc(S(=O)(=O)O)c5cc(S(=O)(=O)O)cc(S(=O)(=O)O)c45)ccc3C)c2)c1", "note": "[suramin]", "values": [{"measurement": "Contractile response to S1P after preincubation with suramin", "setting": "[2]; 10 μM suramin, added 30 min prior to S1P", "value": "markedly depressed"}, {"measurement": "Contractile response to 5-HT after preincubation with suramin", "setting": "basilar artery [3]; data not shown", "value": "did not modify"}, {"measurement": "S1P's effect on rCBF after suramin pretreatment", "setting": "cerebral blood flow; suramin 16 mg/kg via femoral vein, S1P 0.3 mg/kg", "value": "abolished"}]}
{"molecule": "[Cl-].[K+]", "note": "[KCl, potassium chloride]", "values": [{"measurement": "Contractile response to KCl", "setting": "basilar artery [1]; 100 mM KCl", "value": 1.70, "unit": "mN/mm"}, {"measurement": "Contractile response to KCl", "setting": "middle cerebral artery; 100 mM KCl", "value": 1.05, "unit": "mN/mm"}, {"measurement": "Contractile response to KCl", "setting": "coronary artery; 100 mM KCl", "value": 1.87, "unit": "mN/mm"}, {"measurement": "Contractile response to KCl", "setting": "carotid artery; 100 mM KCl", "value": 2.28, "unit": "mN/mm"}, {"measurement": "Contractile response to KCl", "setting": "femoral artery; 100 mM KCl", "value": 4.52, "unit": "mN/mm"}]}
